Entries after “also recorded” stand apart in the source; their conditions may differ.
Key:
[1] = LPS acute lung injury mouse model; type: in vivo; conditions: 50 mg/kg intraperitoneally
Method: FIG. 23. Mice treated with CBR-470-2 or vehicle (NaOH) IP and intratracheally instill LPS to induce acute lung injury.
Systemic CBR-470-2 treatment in acute lung injury mouse model reduces bronchial alveolar lavage (immune cells) cell TNF, IL1b and IL6 production (FIG. 23). C57/B6 Mice were treated with either CBR-470-2 (50 mg/kg dissolved in water and NaOH (1:1)) or vehicle (NaOH) intraperitoneally, and intratracheally instill 0.7 mg/kg of lipopolysaccharide (LPS) to induce […].

UVB skin damage model = conditions: mouse
Method: UVB Skin Damage Model. 32 5-week old Balb/c male mice were randomized into 4 groups of 8 animals such that each group had similar body weight means. Mice were prepared for removal of hair from their entire back two days prior to UVB exposure (day 3) by using an electric shaver and depilatory cream. On day 5, mice received exposure to UVB (200 mJ/cm^2) produced by a broad band UVB lamp (Dermapal UVB Rev 2) powered by a Kernel UV Phototherapy system. UVB exposure was confined to a rectangular area of ˜8 cm^2 by a lead shielding mask. UVB doses were confirmed by dosimeter measurements (Daavlin X96). Sham animals were shaved but received no UVB treatment. Mice were dosed from day 0 to study end at day 10 via oral gavage twice daily (CBR-470-2, 50 mg/kg BID PO; BARD, 3 mg/kg PO; Vehicle, 0.5% methyl cellulose/0.5% Tween80). Mice were monitored daily for body weight changes and erythema scoring from days 5 to 10. […] Blinded erythema scores were recorded by a blinded, trained investigator according to established in house scale. […]
Percent wounded area measurements. […] Red content corresponding to wounds was then quantified as a fraction of the whole imaging field and reported as percent wounded area.
Epidermal thickness measurements. […] 24 individual measurements of epidermal thickness from 8 sections spanning a 400 μm step distance were recorded per animal by a non-blinded, trained investigator. […]

IMR32 cells = assay: IMR32 viability with co-treatments (cell titer glo); type: cell-based
Method: FIG. 38. PGK1 toxicity can be rescued with metabolites that are involved with GSH biosynthesis and quenching of reactive oxygen species and methylglyoxal. […] IMR32 cells treated for 48 hr in presence of indicated drugs.
PGK1 toxicity can be rescued with metabolites that are involved with GSH biosynthesis and quenching of reactive oxygen species and methylglyoxal.
IMR32 cells were treated for 48 hrs with CBR-470-1 and/or BBGC at combinations of doses in a synergy matrix (FIG. 41). […] Viability measured using cell titer glo assay (Promega). Viability decreased at higher concentrations of CBR-470-1 and BBGC start at 5 uM. […] Sensitivity of cell lines to direct inhibition of GLO1 (which detoxifies MGO) is generally correlated with sensitivity to PGK1 inhibition with CBR-470-1-consistent with MGO buildup playing a role in toxicity.

SMILES: O=C(O)CN[C@H]1CS(=O)(=O)C[C@@H]1S(=O)(=O)c1ccc(Cl)c(Cl)c1 [CBR-470-2]
- IL6 gene expression, lung tissue ([1]; LPS): decreased gene expression of IL6
- IL1b production, BAL cells ([1]; LPS 0.7 mg/kg intratracheally): decreased TNF, IL6, and IL1b production
- IL6 production, BAL cells ([1]; LPS 0.7 mg/kg intratracheally): decreased TNF, IL6, and IL1b production; also recorded: decreased IL-6, and mRNA expression in immune cells (BAL cells)
- TNF production, BAL cells ([1]; LPS 0.7 mg/kg intratracheally): decreased TNF, IL6, and IL1b production
- NRF2 signaling in vivo (pharmacodynamic and efficacy data) (UVB skin damage model): capable of modulating NRF2 signaling in vivo

SMILES: CN(C)C(=N)N=C(N)N [metformin]
- effect of co-treatment on viability effects of PGK1 inhibition (IMR32 cells; across cell lines, on average, IMR32 48 hr): do not strongly affect viability effects of PGK1 inhibition; also recorded: do not strongly effect viability effect of PGK1 inhibition

SMILES: CC1(C)CC(O)CC(C)(C)N1[O] [Tempol]
- effect of co-treatment with ROS scavenger on anti-proliferative effects of CBR-470-1 (IMR32 cells; co-treatment with CBR-470-1): does not effectively reduce anti-proliferative effects of CBR-470-1
